Experimental findings from patent publication US7470821B2, “Aldolase-inhibiting aromatic compounds” (Valorisation-Recherche, Limited Partnership, priority 2003, dated 2008) are described below.

SMILES strings stand for the structures.

Test [1] can be described thus: Titration of FHN-P by aminocaproic acid, Schiff base model reaction (method B). As to conditions: 25° C. How it is done:
Method B is used to titrate FHN-P by aminocaproic acid. For each analysis of TEA buffer containing a fixed concentration of FHN-P (10 μM), aminocaproic acid is added to obtain varying final concentrations (0.01-0.2 M). The differential absorption spectra, corresponding to the formation of a Schiff base, are recorded at different time intervals, then corrected with absorbance of the buffer, the aminocaproic acid and FHN-P (measured separately).
The apparent first-order rate constant (kapp) and the maximum threshold variations of absorption (ΔAmax) are obtained for each test by applying the slow-binding absorption data to the first-order kinetic equation (or to both first-order kinetic mechanisms). The dissociation constant (Kd) for the Schiff base formed between the FHN-P and the aminocaproic acid is obtained from the absorption differences calculated at equilibrium by using the equation eqn.(2). […]
The FHN-P and the ε-amino group of aldolase lysine residues were taken as the model for formation of the Schiff base, with the reaction of FHN-P (10 μM) with aminocaproic acid […] as a reference, and which was monitored by UV-visible differential spectroscopy. […]

The target in a further test is T1, K146M mutant RM aldolase (Oryctolagus cuniculus, UniProt P00883, K147M).
T1 construct: made in house
T1 sequence (P00883 1-364 K147M): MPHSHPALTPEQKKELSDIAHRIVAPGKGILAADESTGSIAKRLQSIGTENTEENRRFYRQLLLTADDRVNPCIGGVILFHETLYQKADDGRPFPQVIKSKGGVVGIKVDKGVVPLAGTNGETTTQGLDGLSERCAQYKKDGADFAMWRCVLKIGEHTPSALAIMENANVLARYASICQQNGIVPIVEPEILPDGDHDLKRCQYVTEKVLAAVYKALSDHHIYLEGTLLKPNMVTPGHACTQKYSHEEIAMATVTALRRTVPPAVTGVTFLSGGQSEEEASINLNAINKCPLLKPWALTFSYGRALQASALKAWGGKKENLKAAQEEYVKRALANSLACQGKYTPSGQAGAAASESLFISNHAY
The experiment in a line: UV-visible differential spectroscopy (method A) with mutated aldolase K146M. In kind it is binding, rabbit. As to conditions: FHN-P 300 μM; for kapp: 431 nm. As to the method: For method A, absorption spectra are recorded as a function of time, between 250 and 500 nm, or at wavelengths corresponding to maximum or minimum absorption. Measurements are begun by adding FHN-P at varying final concentrations (0.1-1 mM) in the TEA buffer containing a fixed concentration of aldolase (10 μM of subunits). Measured absorption spectra for the enzyme complex are corrected using the absorbance of the buffer, the FHN—P, and the enzyme (measured separately). The differential absorption spectra thus obtained are used to calculate the value of the constants that define the formation of the aldolase-inhibitor complex.
Every UV-visible differential test spectroscopy test using mutated aldolases (10 μM of subunits) is carried out using method A. • Monitored by Electrospray Ionization Mass Spectrometry (ESI-MS).
Residues of lysine 106, 146 and 229 residues are located at the active aldolase sites and thus are candidates for causing inactivation by forming a Schiff base with the FHN-P. In order to identify which lysine is responsible for the differential absorbances in the presence of FHN-P, sporadic mutations of these lysine residues were created and named: K107M (Research Collaboratory for Structural Bioinformatics Protein Databank), K146M (Blonski C. et al., 1997, Biochem. J. 323:71-77) and […] (Research Collaboratory for Structural Bioinformatics Protein Databank). […] UV-visible differential spectroscopy (method A) was used to examine formation of the enzyme complex for each sporadic mutation in the presence of a fixed concentration of FHN-P (300 μM).

On to `O=Cc1c(O)ccc2cc(OP(=O)(O)O)ccc12` [FHN-P, 5-formyl-6-hydroxy-2-naphthylphosphate], for which, in test [1] (FHN-P 10 μM with aminocaproic acid), the “second-order constant k2nd” value amounted to 0.002 ± 0.00017 M⁻¹ s⁻¹. Moreover, the Kd in test [1] (Schiff base, TEA buffer, read-out: dissociation constant Kd of FHN-P-aminocaproic acid) came out at 16 ± 3 mM. In addition, the Residual specific activity result on K146M mutant RM aldolase was “ud”. Also, the “ΔA relative to 432 nm” value is 98% at K146M mutant RM aldolase (first phase) and 25% at K146M mutant RM aldolase (second (slow) phase). The figures for the kapp on K146M mutant RM aldolase (first phase (associated with inhibition)) and at K146M mutant RM aldolase (second (slow) phase) were 0.005 ± 0.0005 min⁻¹ and 0.0015 ± 0.0003 min⁻¹, respectively.

The term Kd denotes the free concentration of one partner at which half of the binding sites on the other are occupied at equilibrium, for simple one-to-one binding.
